{"source": "patent US20240345008A1", "about": "(Eth Zurich, priority 2021, published 2024)", "key": {"[1]": {"target": "PIN1 protein (peptidyl-prolyl cis-trans isomerase NIMA-interacting 1) (Homo sapiens, UniProt Q13526)", "sequence (Q13526 whole entry, species assumed)": "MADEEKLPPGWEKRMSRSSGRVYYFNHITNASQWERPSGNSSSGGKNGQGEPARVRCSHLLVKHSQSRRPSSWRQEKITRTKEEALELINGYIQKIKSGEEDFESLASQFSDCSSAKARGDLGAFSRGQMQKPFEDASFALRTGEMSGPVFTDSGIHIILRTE", "assay": "photo-CIDNP enhanced NMR ligand-target binding, small molecules vs PIN1 protein", "conditions": "100 μM ligand, 25 μM fluorescein, 50 μM PIN1 (ligand 3-4: 25 μM ligand, 15 μM fluorescein, 25 μM PIN1), 450 nm, 1 W, 2 s"}, "PDZ protein domain [2]": {"test_system": "PDZ protein domain", "assay": "photo-CIDNP enhanced NMR ligand-target binding, peptides vs PDZ protein domain (sample A vs B)", "conditions": "100 μM peptide, 25 μM fluorescein, PDZ 100 μM, 450 nm, 1 W, 4 s, no spin lock"}, "PDZ protein domain [3]": {"target": "PDZ protein domain", "assay": "photo-CIDNP NMR titration for dissociation constant of peptide ligand to PDZ protein domain", "assay_type": "binding", "conditions": "47 μM peptide, 25 μM fluorescein, series of PDZ concentrations and irradiation times, 450 nm, fit of equations (7) and (6)"}, "K-Ras protein": {"target": "K-Ras protein (Homo sapiens, UniProt P01116)", "assay": "photo-CIDNP enhanced NMR ligand-target binding with spinlock, small molecules vs K-Ras protein", "conditions": "500 μM ligand, 25 μM fluorescein, 100 μM K-Ras, 450 nm, 1 W, 2 s, spinlock 200 ms"}, "PIN1 protein": {"target": "PIN1 protein (Homo sapiens, UniProt Q13526)", "sequence (Q13526 whole entry, species assumed)": "as above", "assay": "prior knowledge / verification of PIN1 binding (Potter et al. 2010; verification)", "conditions": "method of verification not stated"}, "PDZ protein domain [4]": {"target": "PDZ protein domain", "assay": "photo-CIDNP enhanced 1H NMR titration, 47 µM peptide against a series of PDZ domain concentrations, fit of equations (7) and (6)"}}, "note": "No end group written: not given here."}
{"molecule": "Cc1ccc2[nH]cc(C(=O)O)c2c1", "note": "[ligand 3-2, 5-methyl-indole-3-carboxylic acid]", "values": [{"measurement": "binding to the target PIN1 (signal modified in presence of target)", "setting": "[1]", "result": "bound to the target PIN1"}]}
{"molecule": "WVSAV-NH2 [Peptide 4]", "values": [{"measurement": "binding to the target PDZ (signal modified in presence of target)", "setting": "PDZ protein domain [2]", "result": "did not bind"}]}
{"molecule": "Cc1cccc(-c2nc(C(=O)O)c(C)[nH]2)c1", "note": "[ligand 3-1, 5-methyl-2-(3-methylphenyl)-imidazole-4-carboxylic acid]", "values": [{"measurement": "binding to the target PIN1 (signal modified in presence of target)", "setting": "[1]", "result": "bound to the target PIN1"}]}
{"molecule": "WVSAV [Peptide 1]", "values": [{"measurement": "binding to the target PDZ (signal modified in presence of target)", "setting": "PDZ protein domain [2]", "result": "binding to the target PDZ"}, {"measurement": "Kd", "setting": "PDZ protein domain [3]", "result": 7, "unit": "µM"}]}
{"molecule": "O=C(O)Cc1c[nH]c2ccccc12", "note": "[ligand 4-4, indoleacetic acid]", "values": [{"measurement": "binding to the target K-Ras (signal modified in presence of target)", "setting": "K-Ras protein", "result": "did not bind"}]}
{"molecule": "N[C@@H](Cc1c[nH]c2ccccc12)C(=O)O", "note": "[ligand 3-3, tryptophan]", "values": [{"measurement": "binding to the target PIN1 (signal modified in presence of target)", "setting": "[1]", "result": "did not bind"}, {"measurement": "verification of binding to PIN1", "setting": "PIN1 protein", "result": "verified to not bind to PIN1"}]}
{"molecule": "O=C1NCCCc2c1oc1ccc(O)cc21", "note": "[ligand 3-4, 4-hydroxy-8-oxa-11-azatricyclo[7.5.0.0^2,7]tetradeca-1 (9),2,4,6-tetraen-10-one]", "values": [{"measurement": "binding to the target PIN1 (signal modified in presence of target)", "setting": "[1]", "result": "bound to the target PIN1"}]}
{"molecule": "COc1ccc(C)cc1NC(=O)Nn1cnnc1", "note": "[ligand 4-3, N-(2-methoxy-5-methylphenyl)-N′-4H-1,2,4-triazol-4-ylurea]", "values": [{"measurement": "binding to the target K-Ras (signal modified in presence of target)", "setting": "K-Ras protein", "result": "bound to the target K-Ras"}]}
{"molecule": "WEQLT (Peptide 3)", "values": [{"measurement": "binding to the target PDZ (signal modified in presence of target)", "setting": "PDZ protein domain [2]", "result": "did not bind"}]}
{"molecule": "5 N-(Furan-2-ylmethyl)-1H-benzimidazol-2-amine)-imidazole-4-carboxylic acid [ligand 4-1]", "values": [{"measurement": "binding to the target K-Ras (signal modified in presence of target)", "setting": "K-Ras protein", "result": "bound to the target K-Ras"}]}
{"molecule": "WVSAV", "note": "[Peptide 1 (WVSAV)]", "values": [{"measurement": "Kd", "setting": "PDZ protein domain [4]", "result": 7, "unit": "µM"}]}
